Measured values: patent US9365556B2, “3,5-diaminopyrazole kinase inhibitors” (Axikin Pharmaceuticals, Inc., priority 2012, dated 2016)

Each compound was assayed against T1, kinase domain protein of RC kinase (Homo sapiens, UniProt Q56UN5) (assay: Enzymatic assay for kinase inhibitory activity (Crebtide substrate, LANCE read-out)). Conditions: compound at 1 μM.
T1 sequence (Q56UN5 1061-1324 limits assumed): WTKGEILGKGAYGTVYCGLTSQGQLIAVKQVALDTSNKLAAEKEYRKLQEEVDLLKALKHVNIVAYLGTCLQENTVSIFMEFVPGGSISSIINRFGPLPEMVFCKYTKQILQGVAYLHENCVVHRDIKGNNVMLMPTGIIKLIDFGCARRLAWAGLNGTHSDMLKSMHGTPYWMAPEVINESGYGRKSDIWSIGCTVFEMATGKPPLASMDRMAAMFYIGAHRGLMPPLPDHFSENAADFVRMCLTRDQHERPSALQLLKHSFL
Type: biochemical
Procedure: Solutions of a test compound, Crebtide (a substrate), a kinase, and ATP were prepared using 1×MAPK Buffer (50 mM HEPES, 1 mM EGTA, […], 10 mM MgCl2, 2 mM DTT, and 0.01% Tween 20).
To each well, the test compound (1 μL) was first added (in duplicate) to reach a final concentration of 1 μM or 1×IC50 of the compound. The kinase (5 μl) was then added to each well to reach a final concentration of […] for the kinase domain or […] for the full-length domain. Each plate included a positive and negative controls in duplicate wells. Crebtide (2.5 μL) was then added to each well in duplicate to reach a final concentration of 50 nM. If the full-length kinase was used, the plates were incubated for 45 min at room temperature before proceeding further. ATP (2.5 μL) was added to each well to reach a final concentration of 1 μM for the kinase domain and 3 μM for the full-length.
After the addition of ATP, the plates were incubated for 45 min at room temperature. During the incubation, an EDTA solution (40 mM) and anti-Crebtide ([…]) were prepared. Additionally, a detection buffer stock solution was diluted ten fold before use.
After the incubation, the anti-Crebtide (5 μL) and EDTA (5 μL) were added to each well to reach their final concentrations of […] and 10 mM, respectively. The plates were allowed to develop at room temperature for 45 min. The plates were then read at 665 nm and 615 nm using Perkin Elmer Lance machine.
The biological results of inhibition of the kinase domain protein of RC kinase are summarized in Tables 2 and 3, wherein A represents at least 50% inhibition of the RC kinase activity at 1 μM; B represents no greater than 50% but at least 20% inhibition of the RC kinase activity at 1 μM; C represents no greater than 20% but at least 5% inhibition of the RC kinase activity at 1 μM; and D represents no greater than 5% inhibition of the RC kinase activity at 1 μM.
With `N#Cc1c(Nc2cccc(Cl)c2)n[nH]c1/N=C/c1ccc(-c2ccccn2)s1` [Compound A2] the inhibition at 1 µM was 20 to 50%. For `COc1ccc(/C=N/c2[nH]nc(Nc3ccccc3)c2C#N)cc1` [Compound A6], the “Activity (inhibition of the RC kinase activity)” value was “B (no greater than 50% but at least 20% inhibition of the RC kinase activity at 1 μM)”. In the case of `COc1cc(/C=N/c2[nH]nc(Nc3cccc(Cl)c3)c2C#N)ccc1O` [Compound A17], the “Activity (inhibition of the RC kinase activity)” value is reported as “B (no greater than 50% but at least 20% inhibition of the RC kinase activity at 1 μM)”. With `N#Cc1c(Nc2ccccc2)n[nH]c1/N=C/c1ccc(C(F)(F)F)cc1` [Compound A18] the “Activity (inhibition of the RC kinase activity)” value was “C (no greater than 20% but at least 5% inhibition of the RC kinase activity at 1 μM)”. For `COc1cccc(/C=N/c2[nH]nc(Nc3cccc(Cl)c3)c2C#N)c1` [Compound A24], the “Activity (inhibition of the RC kinase activity)” value was “D (no greater than 5% inhibition of the RC kinase activity at 1 μM)”. In the case of `N#Cc1c(Nc2cccc(Cl)c2)n[nH]c1/N=C/c1ccc[nH]1` [Compound A27], the “Activity (inhibition of the RC kinase activity)” value is reported as “C (no greater than 20% but at least 5% inhibition of the RC kinase activity at 1 μM)”. `N#Cc1c(Nc2ccccc2)n[nH]c1/N=C/c1ccc[nH]1` [Compound A28] showed an inhibition at 1 µM of 5 to 20%. In the case of `N#Cc1c(Nc2ccc(Cl)cc2)n[nH]c1/N=C/c1ccc[nH]1` [Compound A39], the “Activity (inhibition of the RC kinase activity)” value is reported as “D (no greater than 5% inhibition of the RC kinase activity at 1 μM)”. For `COc1ccc(Nc2n[nH]c(/N=C/c3ccc(Cl)cc3)c2C#N)cc1` [Compound A44], the “Activity (inhibition of the RC kinase activity)” value was “D (no greater than 5% inhibition of the RC kinase activity at 1 μM)”. In the case of `COc1ccc(Nc2n[nH]c(/N=C/c3ccccc3)c2C#N)cc1` [Compound A45], the “Activity (inhibition of the RC kinase activity)” value is reported as “D (no greater than 5% inhibition of the RC kinase activity at 1 μM)”. For `N#Cc1c(NC2CCCCC2)n[nH]c1/N=C/c1ccc(O)cc1` [Compound A49, 3-(cyclohexylamino)-5-((4-hydroxybenzylidene)amino)-1H-pyrazole-4-carbonitrile], the inhibition at 1 µM was ≤ 5%. In the case of `COc1ccc(/C=N/c2[nH]nc(NC3CCCCC3)c2C#N)cc1` [Compound A50], the “Activity (inhibition of the RC kinase activity)” value is reported as “D (no greater than 5% inhibition of the RC kinase activity at 1 μM)”. `N#Cc1c(NC2CCCCC2)n[nH]c1/N=C/c1ccccc1` [Compound A51] was tested, and the “Activity (inhibition of the RC kinase activity)” value was “D (no greater than 5% inhibition of the RC kinase activity at 1 μM)”. Work on `Cc1cc(C)cc(Nc2n[nH]c(/N=C/c3ccc(O)cc3)c2C#N)c1` [Compound A55] yielded an inhibition at 1 µM of 5 to 20%. For `N#Cc1c(Nc2cc(Cl)cc(Cl)c2)n[nH]c1/N=C/c1ccc(O)cc1` [Compound A56], the inhibition at 1 µM was 5 to 20%. For `CC(C)(C)c1ccc(Nc2[nH]nc(N=Cc3ccc(O)cc3)c2C#N)cc1` [Compound A57, 5-((4-(tert-butyl)phenyl)amino)-3-((4-hydroxybenzylidene)amino)-1H-pyrazole-4-carbonitrile], the inhibition at 1 µM was 5 to 20%. With `N#Cc1c(Nc2ccc(Cl)c(Cl)c2)n[nH]c1/N=C/c1ccc(O)cc1O` [Compound A59] the inhibition at 1 µM was ≤ 5%. With `Cn1nc(C(F)(F)F)c(/C=N/c2[nH]nc(Nc3cccc(Cl)c3)c2C#N)c1Cl` [Compound A69] the “Activity (inhibition of the RC kinase activity)” value was “C (no greater than 20% but at least 5% inhibition of the RC kinase activity at 1 μM)”. For `N#Cc1c(Nc2cccc(Cl)c2)n[nH]c1/N=C/c1nc(-c2ccccc2)[nH]c1Cl` [Compound A72], the “Activity (inhibition of the RC kinase activity)” value was “B (no greater than 50% but at least 20% inhibition of the RC kinase activity at 1 μM)”. For `N#Cc1c(Nc2cccc(Cl)c2)n[nH]c1/N=C/c1ccc(-c2ccc(Cl)cc2)o1` [Compound A73], the “Activity (inhibition of the RC kinase activity)” value was “C (no greater than 20% but at least 5% inhibition of the RC kinase activity at 1 μM)”. With `CN1CCN(c2ccc(/C=N/c3[nH]nc(Nc4cccc(Cl)c4)c3C#N)cc2)CC1` [Compound A74] the “Activity (inhibition of the RC kinase activity)” value was “C (no greater than 20% but at least 5% inhibition of the RC kinase activity at 1 μM)”. For `Cn1c(Cl)c(/C=N/c2[nH]nc(Nc3cccc(Cl)c3)c2C#N)c2ccccc21` [Compound A78], the “Activity (inhibition of the RC kinase activity)” value was “C (no greater than 20% but at least 5% inhibition of the RC kinase activity at 1 μM)”. `COc1cc(/C=N/c2[nH]nc(Nc3cccc(Cl)c3)c2C#N)cc(O)c1OC` [Compound A85] was tested, and the “Activity (inhibition of the RC kinase activity)” value was “C (no greater than 20% but at least 5% inhibition of the RC kinase activity at 1 μM)”. `COc1ccc(/C=N/c2[nH]nc(Nc3cccc(Cl)c3)c2C#N)c(C)c1C` [Compound A89] was tested, and the “Activity (inhibition of the RC kinase activity)” value was “C (no greater than 20% but at least 5% inhibition of the RC kinase activity at 1 μM)”. With `N#Cc1c(Nc2cccc(Cl)c2)n[nH]c1/N=C/c1c(O)cccc1Cl` [Compound A92] the “Activity (inhibition of the RC kinase activity)” value was “D (no greater than 5% inhibition of the RC kinase activity at 1 μM)”. With `Cc1ncsc1/C=N/c1[nH]nc(Nc2cccc(Cl)c2)c1C#N` [Compound A104] the “Activity (inhibition of the RC kinase activity)” value was “D (no greater than 5% inhibition of the RC kinase activity at 1 μM)”. In the case of `N#Cc1c(Nc2cccc(Cl)c2)n[nH]c1/N=C/c1cccs1` [Compound A105], the “Activity (inhibition of the RC kinase activity)” value is reported as “D (no greater than 5% inhibition of the RC kinase activity at 1 μM)”. For `NC(=O)c1c(Nc2ccccc2)n[nH]c1/N=C/c1ccc(O)cc1` [Compound B10], the “Activity (inhibition of the RC kinase activity)” value was “A (at least 50% inhibition of the RC kinase activity at 1 μM)”. For `NC(=O)c1c(Nc2ccccc2)n[nH]c1/N=C/c1ccccc1` [Compound B11], the “Activity (inhibition of the RC kinase activity)” value was “A (at least 50% inhibition of the RC kinase activity at 1 μM)”. For `NC(=O)c1c(Nc2cccc(Cl)c2)n[nH]c1/N=C/c1ccc(C(F)(F)F)cc1` [Compound B16], the “Activity (inhibition of the RC kinase activity)” value was “D (no greater than 5% inhibition of the RC kinase activity at 1 μM)”. With `NC(=O)c1c(Nc2cccc(Cl)c2)n[nH]c1/N=C/c1ccc[nH]1` [Compound B17] the “Activity (inhibition of the RC kinase activity)” value was “B (no greater than 50% but at least 20% inhibition of the RC kinase activity at 1 μM)”. For `NC(=O)c1c(Nc2ccc(Cl)cc2)n[nH]c1/N=C/c1ccc(C(F)(F)F)cc1` [Compound B28], the “Activity (inhibition of the RC kinase activity)” value was “D (no greater than 5% inhibition of the RC kinase activity at 1 μM)”. For `NC(=O)c1c(Nc2cccc(Cl)c2)n[nH]c1/N=C/c1cc(F)cc2c1OCOC2` [Compound B29], the “Activity (inhibition of the RC kinase activity)” value was “D (no greater than 5% inhibition of the RC kinase activity at 1 μM)”. For `COc1cc(/C=N/c2[nH]nc(Nc3ccc(Cl)cc3)c2C(N)=O)ccc1O` [Compound B32], the “Activity (inhibition of the RC kinase activity)” value was “A (at least 50% inhibition of the RC kinase activity at 1 μM)”. `NC(=O)c1c(Nc2ccc(Cl)cc2)n[nH]c1/N=C/c1ccccc1OCC(=O)O` [Compound B37] was tested, and the inhibition at 1 µM was ≤ 5%. With `NC(=O)c1c(Nc2cccc(Cl)c2)n[nH]c1/N=C/c1cc(O)ccc1O` [Compound B38, 3-((3-chlorophenyl)amino)-5-((2,5-dihydroxybenzylidene)amino)-1H-pyrazole-4-carboxamide] the inhibition at 1 µM was ≥ 50%. `NC(=O)c1c(Nc2ccc([N+](=O)[O-])cc2)n[nH]c1/N=C/c1ccccc1` [Compound B39, (E)-5-(benzylideneamino)-3-((4-nitrophenyl)amino)-1H-pyrazole-4-carboxamide] showed an inhibition at 1 µM of 5 to 20%. `NC(=O)c1c(Nc2cccc(Cl)c2)n[nH]c1/N=C/c1ccc([N+](=O)[O-])c(O)c1` [Compound B45] was tested, and the inhibition at 1 µM was 20 to 50%. For `COc1cccc(O)c1/C=N/c1[nH]nc(Nc2cccc(Cl)c2)c1C(N)=O` [Compound B48], the “Activity (inhibition of the RC kinase activity)” value was “C (no greater than 20% but at least 5% inhibition of the RC kinase activity at 1 μM)”. In the case of `NC(=O)c1c(Nc2cccc(Cl)c2)n[nH]c1/N=C/c1cc([N+](=O)[O-])ccc1O` [Compound B51], the “Activity (inhibition of the RC kinase activity)” value is reported as “C (no greater than 20% but at least 5% inhibition of the RC kinase activity at 1 μM)”. `COc1cc(/C=N/c2[nH]nc(Nc3cccc(Cl)c3)c2C(N)=O)ccc1OCc1cnc(Cl)s1` [Compound B55] was tested, and the inhibition at 1 µM was 5 to 20%. For `COc1ccc(/C=N/c2[nH]nc(Nc3cccc(Cl)c3)c2C(N)=O)c(C)c1C` [Compound B57], the “Activity (inhibition of the RC kinase activity)” value was “B (no greater than 50% but at least 20% inhibition of the RC kinase activity at 1 μM)”. In the case of `COc1ccc(F)cc1/C=N/c1[nH]nc(Nc2cccc(Cl)c2)c1C(N)=O` [Compound B58], the inhibition at 1 µM is reported as 20 to 50%. `NC(=O)c1c(Nc2cccc(Cl)c2)n[nH]c1/N=C/c1ccc(Cl)nc1` [Compound B59] was tested, and the inhibition at 1 µM was ≤ 5%.

Same assay, conditions: compound at 1 μM, 1 µM
`N#Cc1c(Nc2cccc(Cl)c2)n[nH]c1/N=C/c1ccc(Oc2ncccn2)cc1` [Compound A77] was tested, and the “Activity (inhibition of the RC kinase activity)” value was “D (no greater than 5% inhibition of the RC kinase activity at 1 μM)”.
